Experimental findings from US12168654B2, “Pyrimidine derivative containing one deuterium atom and preparation process and use thereof” (Guangdong Lewwin Pharmaceutical Research Institute Co., Ltd., priority 2018, dated 2024) are described below.

One may read the Cmax as the peak of the concentration-time curve. What is called Tmax is the time at which the peak concentration occurs.

For data set [1], the system named is human highly metastatic hepatoma cells MHCC-97H. Nature of the data set: MTT anti-tumor cell proliferation test. Format: cell-based. The conditions noted are these: for IC50: Homo sapiens, MHCC97H, MTT. As to the method: The novel pyrimidine derivatives of the invention were tested on their anti-tumor activities. Human highly metastatic hepatoma cells MHCC-97H were employed in the MTT process to evaluate the anti-tumor cell proliferation activities. The specific operation steps were as below: tumor cells were inoculated in a 96-well plate by a certain number of cells, at a cell density of 5×10^3-10×10^3/well. They were incubated in an incubator at 37° C. and a carbon dioxide concentration of 5% overnight, into which was then added the compound samples to be tested. After incubation for 72 hours, MTT was added to keep on for 4 hours, and dissolved with the addition of DMSO with shaking, and then detected with a microplate reader (570 nm).
(1) The anti-tumor cell activities of (R)-1D228 are tested. With Tepotinib and (R)-4D288 as the control, human highly metastatic hepatoma cell MHCC-97Hwas selected to evaluate the antitumor cell proliferative activities through the MTT process. The specific operation steps were as below: the tumor cells were inoculated in a 96-well culture plate following a certain number of cells, the cell density was 5×103-10×10^3/well. After cultivation in an incubator at 37° C. and at a CO2 concentration of 5% overnight, the compound samples to test were added. After cultivation for 72 hours, MTT was added to continue the cultivation for 4 hours. DMSO was then added to dissolve with stirring, and detected with a microplate reader (570 nm).

Another data set concerns tumor in naked mice. Nature of the data set: Anti-tumor test in naked mice. Format: in vivo. The conditions noted are these: once a day for 2 weeks.
The nature of data set [2]: Pharmacokinetic properties in mice (IV and PO). The conditions noted are these: in vivo; for AUC(0-inf) / clearance / half-life / bioavailability: Sprague-Dawley (SD); for Vd / Cmax / Tmax: Sprague-Dawley.
The nature of a further data set: in vitro. The conditions noted are these: for half-life: microsomes. On the procedure:
Firstly, a SD rat (200-300 g) was fasted for 12 hours, and then infused rapidly with normal saline. Liver was taken out from the rat, from which liver microsomes were extracted at 0-4° C., ready for use after calibrating the concentration of liver microsomes. At 37° C., liver microsomes were incubated in combination with a certain concentration of compounds and auxiliary reagents for a period of time. The reaction was then quenched with acetonitrile.

The nature of data set [3]: Body weights of animals during administration. Format: in vivo, naked mice. The conditions noted are these: 8 mg/kg, in g (unit assumed). The source says:
The body weights of animals in each group during administration are shown in FIG. 9 and Table 7, showing that there were no significant changes in the body weights of mice and there were not abnormal behaviors of mice during administration.

Setting [4] is: incubation 72 hours, Table 1, read-out: Human highly metastatic hepatoma cell MHCC-97H (μM), median inhibitory concentration IC50.
Where [5] appears, read: cultivation 72 hours, Table 4, read-out: Human highly metastatic hepatoma cell MHCC-97H (μM), inhibitory activity.

Like-named read-outs stand apart in the source and are kept apart here.

For the compound `CC(c1cccc(-c2ncc(OCC3CCN(C)CC3)cn2)c1)n1nc(-c2cccc(C#N)c2)ccc1=O` (racemic) [(±)-5b], the IC50 in data set [1] (setting [4]) was 0.0353 µM.
Regarding `[2H][C@@](C)(c1cccc(-c2ncc(OCC3CCN(C)CC3)cn2)c1)n1nc(-c2cccc(C#N)c2)ccc1=O` [(R)-1D228], in the data set with tumor in naked mice (4 mg/kg intragastric), the “Relative tumor proliferation rate T/C (%)” value stood at 1.78%, the “Tumor inhibition rate (%)” value was found to be 98.3% and the Tumor weights is on record as 0.011 ± 0.006. Also, in the data set with tumor in naked mice (8 mg/kg intragastric), the “Relative tumor proliferation rate T/C (%)” value was 1.17%, the “Tumor inhibition rate (%)” value was determined as 98.6% and the Tumor weights came out at 0.009 ± 0.007.
As to `C[C@H](c1cccc(-c2ncc(OCC3CCN(C)CC3)cn2)c1)n1nc(-c2cccc(C#N)c2)ccc1=O` [(R)-5b], in data set [2] (iv, 2 mg/kg), the AUC(0-inf) was 2140 ng·h/mL, the clearance is 15.5 mL/min/kg, the half-life is 4.23 h and the Vd turned out to be 5.69 L/kg. In data set [2] (po, 5 mg/kg), the AUC(0-inf) is 4580 ng·h/mL, the bioavailability is 86%, the Cmax was 495 ng/mL and the Tmax was found to be 2 h. The IC50 in data set [1] (setting [4]) turned out to be 0.0037 µM. Moreover, the “activity for inhibiting tumor cells, times that of (S)-5b” value in data set [1] (MHCC-97H, relative to (S)-5b) was determined as 31.9 times. In data set [1] (MHCC-97H, relative to (±)-5b), the “activity for inhibiting tumor cells, times that of (±)-5b” value is 9.5 times. In addition, in the data set “in vitro” (SD, rat), the K is 0.0259 min⁻¹ and the half-life is 0.447 h.
In data set [2] (iv, 2 mg/kg), `[2H]C([2H])([2H])[C@]([2H])(c1cccc(-c2ncc(OCC3CCN(C)CC3)cn2)c1)n1nc(-c2cccc(C#N)c2)ccc1=O` [(R)-14] showed an AUC(0-inf) of 2440 ng·h/mL, a clearance of 13.7 mL/min/kg, a half-life of 4.48 h and a Vd of 5.29 L/kg. For the same compound, in data set [2] (po, 5 mg/kg), the AUC(0-inf) turned out to be 6310 ng·h/mL, the bioavailability turned out to be 104%, the peak level (Cmax) was 614 ng/mL and the Tmax came out at 4 h. Further, in the data set on tumor in naked mice (4 mg/kg intragastric), the “Relative tumor proliferation rate T/C (%)” value was found to be 2.28%, the “Tumor inhibition rate (%)” value is reported as 98.0% and the Tumor weights is 0.013 ± 0.015. In addition, in the data set on tumor in naked mice (8 mg/kg intragastric), the “Relative tumor proliferation rate T/C (%)” value is 1.59%, the “Tumor inhibition rate (%)” value came to 98.2% and the Tumor weights is 0.012 ± 0.006. In addition, in “in vitro” (SD, rat), the K amounted to 0.0198 min⁻¹ and the half-life is 0.583 h.
As for `C[C@@H](c1cccc(-c2ncc(OCC3CCN(C)CC3)cn2)c1)n1nc(-c2cccc(C#N)c2)ccc1=O` [(S)-5b], the IC50 in data set [1] (setting [4]) was 0.118 µM.
On the same count and under the same terms, the same measure for `CC(c1cccc(-c2ncc(OCCCN(C)C)cn2)c1)n1nc(-c2cccc(C#N)c2)ccc1=O` (centres unmarked) [Compound 1]: 0.0476 µM.
Turning to `[2H][C@@](C)(c1cccc(-c2ncc(OCC3CCN(C)CC3)cn2)c1)n1nc(-c2cccc(C#N)c2)ccc1=O` [Compound 1], the IC50 in data set [1] (setting [5]) is 0.0033 µM.
With `C[C@H](c1cccc(-c2ncc(OCCCN(C)C)cn2)c1)n1nc(-c2cccc(C#N)c2)ccc1=O` [Compound 2], the IC50 in data set [1] (setting [4]) came to 0.014 µM.
With `[2H]C([2H])([2H])[C@]([2H])(c1cccc(-c2ncc(OCC3CCN(C)CC3)cn2)c1)n1nc(-c2cccc(C#N)c2)ccc1=O` [Compound 2], the IC50 in data set [1] (setting [5]) is 0.0037 µM.
`CN1CCC(COc2cnc(-c3cccc(Cn4nc(-c5cccc(C#N)c5)ccc4=O)c3)nc2)CC1` [Compound 3]: the IC50 in data set [1] (setting [5]) came to 0.0134 µM.
As for `C[C@@H](c1cccc(-c2ncc(OCCCN(C)C)cn2)c1)n1nc(-c2cccc(C#N)c2)ccc1=O` [Compound 3], in data set [1] (setting [4]), the IC50 came out at 1.04 µM.
Turning to `CC(c1cccc(-c2ncc(OCC3CCN(C)CC3)cn2)c1)n1nc(-c2cccc(C#N)c2)ccc1=O` (centres unmarked) [Compound 4], in data set [1] (setting [4]), the IC50 came to 0.0353 µM.
On the same count and under the same terms, the same measure for `CC(c1cccc(-c2ncc(SCCCN(C)C)cn2)c1)n1nc(-c2cccc(C#N)c2)ccc1=O` (centres unmarked) [Compound 7]: 0.0272 µM; for `C[C@H](c1cccc(-c2ncc(SCCCN(C)C)cn2)c1)n1nc(-c2cccc(C#N)c2)ccc1=O` [Compound 8]: 0.0139 µM; for `C[C@@H](c1cccc(-c2ncc(SCCCN(C)C)cn2)c1)n1nc(-c2cccc(C#N)c2)ccc1=O` [Compound 9]: 0.189 µM.
For `CC(c1cccc(-c2ncc([Se]CCCN(C)C)cn2)c1)n1nc(-c2cccc(C#N)c2)ccc1=O` (centres unmarked) [Compound 10], the IC50 in data set [1] (setting [4]) is 0.027 µM.
Still for that read-out and setting: the same measure for `C[C@H](c1cccc(-c2ncc([Se]CCCN(C)C)cn2)c1)n1nc(-c2cccc(C#N)c2)ccc1=O` [Compound 11]: 0.0117 µM; for `C[C@@H](c1cccc(-c2ncc([Se]CCCN(C)C)cn2)c1)n1nc(-c2cccc(C#N)c2)ccc1=O` [Compound 12]: 0.415 µM.
With `[2H]C([2H])([2H])[C@H](c1cccc(-c2ncc(OCC3CCN(C)CC3)cn2)c1)n1nc(-c2cccc(C#N)c2)ccc1=O` [Compound 13], in data set [1] (setting [4]), the IC50 turned out to be 0.0035 µM.
Take `[2H]C([2H])([2H])[C@]([2H])(c1cccc(-c2ncc(OCC3CCN(C)CC3)cn2)c1)n1nc(-c2cccc(C#N)c2)ccc1=O` [Compound 14]: in data set [1] (setting [4]), the IC50 came to 0.0037 µM.
Still for that read-out and setting: as for `[2H]C([2H])([2H])[C@@]([2H])(c1cccc(-c2ncc(OCC3CCN(C)CC3)cn2)c1)n1nc(-c2cccc(C#N)c2)ccc1=O` [Compound 15], the figure is 1.12 µM; as for `CN1CCC(COc2cnc(-c3cccc(Cn4nc(-c5cccc(C#N)c5)ccc4=O)c3)nc2)CC1` [Compound 16], 0.0134 µM.
As to `CN1CCC(COc2cnc(-c3cccc(Cn4nc(-c5cccc(C#N)c5)ccc4=O)c3)nc2)CC1` [Tepotinib, reference compound], the AUC(0-inf) in data set [2] (mouse, IV 2 mg/kg, read-out: AUC0-∞) came to 563 ng·h/mL; in data set [2] (mouse, PO 5 mg/kg, read-out: AUC0-∞), 982 ng·h/mL. The clearance in data set [2] (mouse, IV 2 mg/kg, read-out: CL (converted)) was 59.2 mL/min/kg. Besides, the half-life in data set [2] (mouse, IV 2 mg/kg, read-out: T1/2 (converted)) is 1.79 h; in “in vitro” (SD, rat), 0.345 h. The bioavailability in data set [2] (mouse, PO 5 mg/kg vs IV 2 mg/kg, read-out: F % (bioavailability)) was found to be 67.8%. In data set [2] (mouse, IV 2 mg/kg, read-out: Vz), the Vd amounted to 9.18 L/kg. The Cmax in data set [2] (mouse, PO 5 mg/kg, read-out: Cmax) came to 211 ng/mL. Also, the Tmax in data set [2] (mouse, PO 5 mg/kg, read-out: Tmax) stood at 1 h. Moreover, in data set [3] (D 0), the “body weights D 0” value is reported as 24.9 ± 1.0. Moreover, the “body weights D 3” value in data set [3] (D 3) was 25.1 ± 1.1. In data set [3] (D 6), the “body weights D 6” value is 25.3 ± 1.0. Further, the “body weights D 9” value in data set [3] (D 9) worked out at 25.2 ± 1.1. Further, the “body weights D 12” value in data set [3] (D 12) came out at 25.3 ± 1.0. Further, the “body weights D 14” value in data set [3] (D 14) came to 25.1 ± 1.0. Moreover, the “Relative tumor proliferation rate T/C (%)” value with tumor in naked mice (8 mg/kg intragastric) is recorded as 4.9%. The “Tumor inhibition rate (%)” value with tumor in naked mice (8 mg/kg intragastric) was 93.8%. In the data set with tumor in naked mice (8 mg/kg intragastric), the Tumor weights was 0.041 ± 0.021. Further, in the data set “in vitro” (rat liver microsomes, 37° C.), the K was determined as 0.0134 min⁻¹.
Regarding `C[C@]12CC[C@H]3[C@@H](CCC4=CC(=O)CC[C@@]43C)[C@@H]1CC[C@@H]2O` [testosterone, reference compound], in the data set “in vitro” (rat liver microsomes, 37° C.), the “T1/2 (metabolic half-life in liver microsomes)” value was found to be 2.3 min.
